In patent US20120165319A1, “INHIBITORS OF INTERLEUKIN-1 BETA CONVERTING ENZYME” (VERTEX PHARMACEUTICALS INCORPORATED, priority 1995, published 2012):
Blank lines part the entries; values can stand above or below the compound they belong to.

Assays:
ICE = target: T1, ICE (Homo sapiens, UniProt P29466); test: Enzyme assay with fluorescent substrate (Acetyl-Tyr-Val-Ala-Asp-AMC); Ki and second order rate constants kinact; format: biochemical; conditions: for kinact (ICE): second-order rate constant for inactivation, irreversible inhibitors (Table 2)
T1 sequence (P29466 120-297 limits assumed): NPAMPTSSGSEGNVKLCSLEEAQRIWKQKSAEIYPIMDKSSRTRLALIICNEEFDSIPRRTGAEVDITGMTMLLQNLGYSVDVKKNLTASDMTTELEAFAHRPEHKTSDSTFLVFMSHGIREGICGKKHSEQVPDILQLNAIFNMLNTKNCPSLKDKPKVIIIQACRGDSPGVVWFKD
T1 sequence (P29466 317-404 limits assumed): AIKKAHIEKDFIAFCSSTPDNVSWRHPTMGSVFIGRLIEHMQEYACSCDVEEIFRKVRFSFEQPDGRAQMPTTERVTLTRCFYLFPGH
Protocol: 2. Enzyme Assay with Fluorescent Substrate
This assay is run essentially according to Thornberry et al. (Nature 356: 768-774 (1992)), using substrate 17 referenced in that article. The substrate is: Acetyl-Tyr-Val-Ala-Asp-amino-4-methylcoumarin (AMC). The following components are mixed:
The assay is run in a 96 well microtiter plate. Buffer and ICE are added to the wells. The components are left to incubate at 37° C. for 15 minutes in a temperature-controlled wellplate. After the 15 minute incubation, the reaction is started by adding substrate directly to the wells and the reaction is monitored @37° C. for 30 minutes by following the release of the AMC fluorophore using an excitation wavelength for 380 nm and an emission wavelength of 460 nm. A linear fit of the data for each well is performed and a rate is determined in fluorescence units per second.
For determination of enzyme inhibition constants (Ki) or the mode of inhibition (competitive, uncompetitive or noncompetitive), the rate data determined in the enzyme assays at varying inhibitor concentrations are computer-fit to standard enzyme kinetic equations (see I. H. Segel, Enzyme Kinetics, Wiley-Interscience, 1975).
The determination of second order rate constants for irreversible inhibitors was performed by fitting the fluorescence vs time data to the progress equations of Morrison. Morrison, J. F., Mol. Cell. Biophys., 2, pp. 347-368 (1985). Thornberry et al. have published a description of these methods for measurement of rate constants of irreversible inhibitors of ICE. Thornberry, N. A., et al. Biochemistry, 33, pp. 3923-3940 (1994). For compounds where no prior complex formation can be observed kinetically, the second order rate constants (kinact) are derived directly from the slope of the linear plots of kobs vs. [I]. For compounds where prior complex formation to the enzyme can be detected, the hyperbolic plots of kobs vs. [I] are fit to the equation for saturation kinetics to first generate Ki and k′. The second order rate constant kinact is then given by k′/Ki.
(§1) The selectivity of a panel of reversible inhibitors for ICE homologs is depicted in Table 1. ICE enzyme assays were performed according to Wilson et al (supra 1994) using a YVAD-AMC substrate (Thornberry et al, supra 1992). Assay of TX activity was performed using the ICE substrate under identical conditions to ICE. Assay of CPP32 was performed using a DEVD-AMC substrate (Nicholson et al., supra 1995). In general, there is low selectivity between ICE and TX for a wide range of scaffolds. None of the synthetic ICE compounds tested are effective inhibitors of CPP32.
(§2) Second-order rate constants for inactivation of ICE and ICE homologs with selected irreversible inhibitors are presented below (Table 2). The irreversible compounds studied are broad spectrum inhibitors of ICE and its homologs. Some selectivity, however, is observed with the irreversible compounds comparing inhibition of ICE and CPP32.

TX = target: T2, TX (Homo sapiens, UniProt P49662); test: Inhibition of ICE homologs: TX; format: biochemical; conditions: for Ki: ICE substrate, conditions identical to ICE (Table 1); for kinact (TX): second-order rate constant for inactivation, irreversible inhibitors (Table 2)
T2 construct: made in house; host or cells: Spodoptera frugiperda (Sf9) insect cells, recombinant baculovirus (pVL1393/TX)
T2 sequence (P49662 81-270 limits assumed): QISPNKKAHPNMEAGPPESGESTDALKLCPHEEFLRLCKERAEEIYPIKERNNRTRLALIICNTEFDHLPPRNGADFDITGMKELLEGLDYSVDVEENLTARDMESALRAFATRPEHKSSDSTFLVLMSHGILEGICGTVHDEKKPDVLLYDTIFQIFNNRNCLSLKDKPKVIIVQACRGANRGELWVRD
T2 sequence (P49662 290-377 limits assumed): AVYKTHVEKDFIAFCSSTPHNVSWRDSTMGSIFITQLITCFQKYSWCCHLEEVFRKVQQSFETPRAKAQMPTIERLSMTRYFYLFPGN
Text: Expression of TX in insect cells using a baculovirus expression system. We have subcloned Tx cDNA (Faucheu et al., supra 1995) into a modified pVL1393 transfer vector, co-transfected the resultant plasmid (pVL1393/TX) into insect cells with viral DNA and identified the recombinant baculovirus. After the generation of high titer recombinant virus stock, the medium was examined for TX activity using the visible ICE assay. […] ICE was used as a standard in the assay.
as §1, §2

CPP32 = target: T3, CPP32 (Homo sapiens, UniProt P42574); test: Inhibition of ICE homologs: CPP32 (DEVD-AMC substrate); conditions: for kinact (CPP32): second-order rate constant for inactivation, irreversible inhibitors (Table 2)
T3 sequence (P42574 29-175 limits assumed): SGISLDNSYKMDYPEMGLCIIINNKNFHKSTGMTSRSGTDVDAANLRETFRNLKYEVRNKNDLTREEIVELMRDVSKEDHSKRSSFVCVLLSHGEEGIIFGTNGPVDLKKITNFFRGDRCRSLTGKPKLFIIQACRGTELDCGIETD
T3 sequence (P42574 176-277 limits assumed): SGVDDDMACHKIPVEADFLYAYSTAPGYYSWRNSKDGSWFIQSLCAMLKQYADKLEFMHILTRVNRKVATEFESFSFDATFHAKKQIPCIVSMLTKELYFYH

U937 cells = test: Fas-induced apoptosis in U937 cells; conditions: Homo sapiens; for inhibition at 20 µM: U-937, read-out: Inhibition of apoptosis

Compound: CS(=O)(=O)N[C@H]1CCC(=O)N2CCC[C@@H](C(=O)N[C@@H](CC(=O)O)C(=O)COC(=O)c3sccc3Cl)N2C1=O [505 e, [3S(1S,9S)]5-(3-Chlorothien-2-oyloxy)-3-(6,10-dioxo-9-methanesulphonylamino-1,2,3,4,7,8,9,10-octahydro-6H-pyridazino[1,2-a][1,2]diazepine-1-carboxamido)-4-oxopentanoic acid]
Fluorescent Assay kinact (ICE; Table 18): 420000 m^−1 s^−1

Compound: O=C(O)C[C@H](NC(=O)[C@@H]1CCCN2C(=O)CC[C@H](NC(=O)CCc3ccccc3)C(=O)N12)C(=O)COC(=O)c1c(Cl)cccc1Cl [Compound 136]
inhibition at 20 µM (U937 cells): > 75% | Fluorescent Assay kinact (ICE; Table 6): 5.4 × 10^5 m^−1 s^−1

Compound: O=C(O)C[C@H](NC(=O)[C@@H]1CCCN2C(=O)CC[C@H](NC(=O)CCc3ccccc3)C(=O)N12)C(=O)c1ncc(-c2c(Cl)cccc2Cl)o1 [Compound 137]
Ki (TX): 40 ± 7 nM | Ki (CPP32): > 1000 nM

Compound: CS(=O)(=O)N[C@H]1CCC(=O)N2CCC[C@@H](C(=O)N[C@@H](CC(=O)O)C(=O)COC(=O)c3c(Cl)cccc3Cl)N2C1=O [Compound 138]
kinact (TX) (TX): 150,000 M^−1 s^−1 | inhibition at 20 µM (U937 cells): > 75% | Fluorescent Assay kinact (ICE; Table 6): 1.2 × 10^5 m^−1 s^−1 | kinact (ICE) (ICE): 120,000 M^−1 s^−1 | kinact (CPP32) (CPP32): 550,000 M^−1 s^−1

Compound: O=C(O)C[C@H](NC(=O)[C@@H]1CCCN2C(=O)CC[C@H](NC(=O)OCc3ccccc3)C(=O)N12)C(=O)COC(=O)c1c(Cl)cccc1Cl [Compound 217d, [3S(1S,9S)]3-(9-Benzyloxycarbonylamino-6,10-dioxo-1,2,3,4,7,8,9,10-octahydro-6H-pyridazino[1,2-a][1,2]-diazepine-1-carboxamido)-5-(2,6-dichlorobenzoyloxy)-4-oxopentanoic acid]
kinact (TX) (TX): 250,000 M^−1 s^−1 | Fluorescent Assay kinact (ICE; Table 6): 4.7 × 10^5 m^−1 s^−1 | kinact (ICE) (ICE): 475,000 M^−1 s^−1 | kinact (CPP32) (CPP32): 150,000 M^−1 s^−1

Compound: O=C(O)C[C@H](NC(=O)[C@@H]1CCCN2C(=O)CC[C@H](NC(=O)c3ccccc3)C(=O)N12)C(=O)COC(=O)c1c(Cl)cccc1Cl [Compound 217e, [3S(1S,9S)]3-(9-Benzoylamino-6,10-dioxo-1,2,3,4,7,8,9,10-octahydro-6H-pyridazino[1,2-a][1,2]-diazepine-1-carboxamido)-5-(2,6-dichlorobenzoyloxy)-4-oxopentanoic acid]
IC50 (U937 cells; U-937, 24 h, read-out: IC50, anti-Fas-induced apoptosis): 800 nM

Compound: O=C(O)C[C@H](NC(=O)[C@@H]1CCCN2C(=O)CC[C@H](NC(=O)c3ccccc3)C(=O)N12)C(=O)CSc1nnnn1-c1ccccc1 [Compound 280, [3S(1S,9S)]3-(9-Benzoylamino-6,10-dioxo-1,2,3,4,7,8,9,10-octahydro-6H-pyridazino[1,2-a][1,2]diazepine-1-carboxamido)-4-oxo-5(1-phenyl-1H-tetrazole-5-thio)pentanoic acid]
Fluorescent Assay kinact (ICE; Table 6): 4 × 10^5 m^−1 s^−1

Compound: O=C(O)C[C@H](NC(=O)[C@@H]1CCCN2C(=O)CC[C@H](NC(=O)c3ccccc3)C(=O)N12)C(=O)COc1cccnc1 [Compound 283, [3S(1S,9S)]3-[9-Benzoylamino-6,10-dioxo-1,2,3,4,7,8,9,10-octahydro-6H-pyridazino[1,2-a][1,2]diazepine-1-carboxamido]-4-oxo-5-(3-pyridyloxy)pentanoic acid]
Fluorescent Assay kinact (ICE; Table 6): 1 × 10^5 m^−1 s^−1

Compound: COC(=O)N[C@H]1CCC(=O)N2CCC[C@@H](C(=O)N[C@@H](CC(=O)O)C(=O)COC(=O)c3c(Cl)cccc3Cl)N2C1=O [Compound 284, [3S(1S,9S)]5-(2,6-Dichlorobenzoyloxy)-3-[6,10-dioxo-9-(methoxycarbonyl)amino-1,2,3,4,7,8,9,10-octahydro-6H-pyridazino[1,2-a][1,2]diazepine-1-carboxamido]-4-oxopentanoic acid]
Fluorescent Assay kinact (ICE; Table 6): 3.5 × 10^5 m^−1 s^−1

Compound: COC(=O)N[C@H]1CCC(=O)N2CCC[C@@H](C(=O)N[C@@H](CC(=O)O)C(=O)COC(=O)c3c(C)cccc3C)N2C1=O [Compound 285, [3S(1S,9S)]5-(2,6-Dimethylbenzoyloxy)-3-[6,10-dioxo-9-(methoxycarbonyl)amino-1,2,3,4,7,8,9,10-octahydro-6H-pyridazino[1,2-a][1,2]diazepine-1-carboxamido]-4-oxopentanoic acid]
Fluorescent Assay kinact (ICE; Table 6): 4.3 × 10^5 m^−1 s^−1

Compound: CS(=O)(=O)N[C@H]1CCC(=O)N2CCC[C@@H](C(=O)N[C@@H](CC(=O)O)C(=O)COC(=O)c3cccc4ccccc34)N2C1=O [Compound 286, [3S(1S,9S)]3-(6,10-Dioxo-9-methanesulphonylamino-1,2,3,4,7,8,9,10-octahydro-6H-pyridazino[1,2-a][1,2]diazepine-1-carboxamido)-5-(1-naphthoyloxy)-4-oxopentanoic acid]
Fluorescent Assay kinact (ICE; Table 18): 370000 m^−1 s^−1

Compound: [3S(1S,9S)]3-[(6,10-Dioxo-9-(methanesulphonylamino)-1,2,3,4,7,8,9,10-octahydro-6H-pyridazino[1,2-a][1,2]diazepine-1-carboxamido]-5-(5-methyl-3-phenylisoxazoyloxy)-4-oxopentanoic acid [505 b]
Fluorescent Assay kinact (ICE; Table 18): 190000 m^−1 s^−1

Results, then the compound that gave them:

Ki (TX): 57 ± 13 nM | Ki (CPP32): > 1000 nM
Compound: O=C(O)C[C@H](NC(=O)[C@@H]1CCCN2C(=O)CC[C@H](NC(=O)CCc3ccccc3)C(=O)N12)C(=O)CSCc1ccccc1Cl [Compound 125b, [3S(1S,9S)]-3-(6,10-dioxo-1,2,3,4,7,8,9,10-octahydro)-9-(3-phenylpropionyl-amino)-6H-pyridazine[1,2-a][1,2]diazepine-1-carboxamido-5-(2-chlorophenyl-methylthio)-4-oxopentanoic acid]

Ki (TX): 55 ± 9 nM | Ki (CPP32): > 1000 nM
Compound: COc1cccc2nc(C(=O)[C@H](CC(=O)O)NC(=O)[C@@H]3CCCN4C(=O)CC[C@H](NC(=O)CCc5ccccc5)C(=O)N34)oc12 [Compound 135a]
